Values quoted from earlier work in patent US20210198302A1, “OLIGOSACCHARIDE COMPOSITIONS AND METHODS OF USE THEREOF FOR REDUCING AMMONIA LEVELS” (Kaleido Biosciences, Inc., priority 2018, published 2021).

System: OHE patients
Conditions: administered in combination with lactulose

For `CO[C@H]1/C=C/O[C@@]2(C)Oc3c(C)c(O)c4c(O)c(c5c(nc6cc(C)ccn65)c4c3C2=O)NC(=O)/C(C)=C\C=C\[C@H](C)[C@H](O)[C@@H](C)[C@@H](O)[C@@H](C)[C@H](OC(C)=O)[C@@H]1C` [rifaximin], the “reduction of episodes of OHE” value is given as “approximately 50%”.
